{"source": "patent US10675267B2", "about": "“Methods for detection and eradication of myeloid leukemia stem cells” (priority 2015, dated 2020)", "key": {"[1]": {"system": "AML LSC (CD34+ cells from AML primary samples)", "assay": "SL/M2 stromal co-culture with colony formation (survival) and replating (self-renewal) assays, AML", "assay_type": "cell-based, human", "conditions": "two weeks SL/M2 co-culture, 0.1-10 μM, versus DMSO", "protocol": "(§1) In hypothesis-driven experiments, the splicing modulatory compound 17S-FD-895 was tested to determine efficacy in altering splicing activity in cell lines, and to evaluate effects on AML LSC survival and self-renewal capacity in humanized bone marrow stromal co-cultures and in PRIMAGRAFT™ AML LSC models. Cell culture experiments were performed using 293T and sAML (MOLM-13) cell lines, and SL and M2 bone marrow stromal cell lines. Animal studies were performed using immunocompromised Rag2−/−γc−/−[20] or NOD/SCID-IL2RG mice (Jackson Laboratory, Bar Harbor, Me.). Primary AML and normal control samples were used in in vitro hematopoietic stem and progenitor assays after bone marrow stromal co-culture and treatment with splicing modulatory compounds (FD-895 or 17S-FD-895) or vehicle control (DMSO). Colony formation potential and self-renewal capacity were assessed by counting colony numbers (survival) after two weeks of growth in semi-solid (methylcellulose) media, and subsequent replating capacity (self-renewal) was assessed after transfer to fresh methylcellulose for an additional two weeks of culture. Three primary AML samples were utilized to establish PRIMAGRAFT™ models in immunocompromised mice, and mice engrafted with cells from two of these models (AML-37 and AML-08) were treated with 17S-FD-895 or vehicle (DMSO) to evaluate changes in AML LSC survival and self-renewal capacity in vivo. Data were collected by flow cytometry and qRT-PCR analysis of CD34-selected human LSC-enriched cells from engrafted mice.\n(§2) Bone marrow SL/M2 monolayers were established from freshly inactivated (irradiated) cells and then human CD34^+ cells selected from AML primary samples (n=8) and normal controls (CD34^+ cells from cord blood, CB, n=6; or aged bone marrow, n=6) were added. Survival and self-renewal of the CD34+ cells were investigated by methylcellulose-based colony and replating assays. Two SF3B1-targeted splicing modulators, FD-895 or 17S-FD-895, were added at the initiation of co-culture at concentrations ranging from 0.1 to 10 μM.\nMouse bone marrow stromal cell lines (SL and M2 mycoplasma-free authenticated cells obtained from ATCC) expressing human interleukin-3 (IL-3), stem cell factor (SCF) and granulocyte-colony stimulating factor (G-CSF), which support erythroid and myeloid cell expansion and differentiation, were maintained under standard culture conditions, as previously described. Briefly, SL cells were grown in complete medium containing DMEM (Corning), 10% FBS, 1% Glutamax, and 1% penicillin-streptomycin (Life Technologies), while M2 cells were grown in complete medium containing RPMI, 10% FBS, 1% Glutamax, and 1% penicillin-streptomycin (all from Life Technologies). Every four passages, cells were selected by addition of G418 and hygromycin to the culture media for one passage (3-4 days), to maintain human cytokine expression. All cell lines were maintained in T-25 or T-75 culture flasks and were passaged at dilutions of 1:5-1:10 every 2-4 days. Low passage aliquots of cells were thawed every two months to ensure consistency of experiments.\n(§3) As previously described (Goff et al., 2013), humanized bone marrow SL/M2 monolayers were inactivated (irradiated) and then human CD34^+ cells selected from AML primary samples and normal controls were added for two weeks of co-culture, followed by methylcellulose-based colony and replating assays. FD-895 or 17S-FD-895 were added at the initiation of co-culture, with DMSO as a vehicle control.\nMouse bone marrow stromal cell lines (SL and M2 mycoplasma-free authenticated cells obtained from ATCC) expressing human interleukin-3 (IL-3), stem cell factor (SCF) and granulocyte-colony stimulating factor (G-CSF), which support erythroid and myeloid cell expansion and differentiation (Hogge et al., 1996), were maintained under standard culture conditions, as previously described (Goff et al., 2013). […]"}, "[2]": {"system": "CD34+ cells from normal aged bone marrow", "assay": "SL/M2 stromal co-culture with colony and replating assays, normal bone marrow", "assay_type": "cell-based, human", "conditions": "normal aged bone marrow samples", "protocol": "as §1, §2, §3"}}, "note": "“Also recorded” adds a separate entry of the source.", "data": [{"smiles": "CCC(OC)C(C)C1OC1C(O)C(C)/C=C/C=C(\\C)C1OC(=O)CC(O)CCC(C)(O)C(OC(C)=O)/C=C/C1C", "note": "(stereo not shown) [FD-895, reference compound]", "values": [{"measurement": "AML LSC self-renewal (colony replating)", "setting": "[1]", "value": "dose-dependent reduction; also recorded: reduced AML LSC self-renewal"}, {"measurement": "AML LSC survival (colony formation)", "setting": "[1]", "value": "dose-dependent reduction; also recorded: reduced AML LSC survival"}, {"measurement": "erythroid colony formation and self-renewal", "setting": "[2]", "value": "not significantly changed; also recorded: no effect on erythroid colonies"}, {"measurement": "granulocyte-macrophage (myeloid) colony survival", "setting": "[2]", "value": "slight decrease; also recorded: reduces myeloid colony formation"}]}]}
